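Values below derive from 48-hour exposures of cells grown in 96-well plates, with endpoints linearly interpolated between the two concentrations bracketing the appropriate inhibition level. The concentration for full growth arrest is given as TGI.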
Columns and labels:
Test in all cases: inhibition of tumour cell growth, NCI panel, 48 h
[1] = test system: HS 578T breast
[2] = test system: HCT-15 colon
[3] = test system: SNB-19 CNS
[4] = test system: SK-OV-3 ovarian
[5] = test system: M14 melanoma
[6] = test system: HT29 colon
[7] = test system: UACC-257 melanoma
[8] = test system: MDA-N
[9] = test system: ACHN renal
[10] = test system: HOP-62 NSCLC
[11] = test system: CAKI-1 renal
[12] = test system: SF-539 CNS
[13] = test system: PC-3 prostate
[14] = test system: SR leukemia
[15] = test system: MDA-MB-435
[16] = test system: OVCAR-3 ovarian
[17] = test system: DU-145 prostate
[18] = test system: COLO 205 colon
[19] = test system: RXF 393 renal
[20] = test system: SF-268 CNS
[21] = test system: K-562 leukemia
[22] = test system: KM12 colon
[23] = test system: SW-620 colon
[24] = test system: SN12C renal
[25] = test system: OVCAR-4 ovarian
[26] = test system: 786-0 renal
[27] = test system: UACC-62 melanoma
[28] = test system: U251 CNS
[29] = test system: NCI-H23 lung
[30] = test system: EKVX NSCLC
[31] = test system: MCF7 breast
[32] = test system: MDA-MB-231 breast
[33] = test system: SK-MEL-5 melanoma
[34] = test system: IGROV1 ovarian
[35] = test system: OVCAR-8 ovarian
[36] = test system: SNB-75 CNS
[37] = test system: SK-MEL-2 melanoma
[38] = test system: LOX IMVI melanoma
[39] = test system: NCI-H522 lung
[40] = test system: OVCAR-5 ovarian
[41] = test system: NCI-H460 lung
[42] = test system: HOP-92 NSCLC
[43] = test system: UO-31 renal
[44] = test system: TK-10 renal
[45] = test system: BT-549 breast
[46] = test system: MOLT-4 leukemia
[47] = test system: NCI/ADR-RES ovarian
[48] = test system: SF-295 CNS
[49] = test system: CCRF-CEM leukemia
[50] = test system: A549 NSCLC
[51] = test system: HCT-116 colon
[52] = test system: SK-MEL-28 melanoma
[53] = test system: A498 renal
[54] = test system: NCI-H226 lung
[55] = test system: MALME-3M melanoma
[56] = test system: T-47D breast
[57] = test system: HL-60(TB) leukemia

Measured: TGI

COc1c(C)c(C/C=C(\C)CC/C=C(\C)CC/C=C(\C)CC/C=C(\C)CCC=C(C)C)c(OC)c(OC)c1OC
37.6 µM: [10]
44.2 µM: [29] | [48]
46.1 µM: [35]
53.8 µM: [49]
69 µM: [44]
39.4 µM: [20]
23.2 µM: [41]
31.4 µM: [39]
38.1 µM: [33]
33.3 µM: [9]
59.8 µM: [47]
55.1 µM: [21]
48.1 µM: [50]
29.1 µM: [22]
52.7 µM: [24]
31.8 µM: [26] | [42]
60.3 µM: [34]
52.3 µM: [25]
33.7 µM: [38]
70.4 µM: [43]
54.7 µM: [14]
not listed: [52] | [53] | [54] | [55] | [56] | [57]
> 100 µM: all other assays above

C1=C2C3=[N+](CCCC3)CC2Cc2sccc21 (stereo unspecified)
not listed: [12] | [14]
> 100 µM: all other assays above

— PubChem BioAssay (NCI)
